Biological target: Cannabinoid receptor 2 (Homo sapiens, UniProt P34972)
Assay: Displacement of [3H]CP-55,940 from human CB2 receptor after 1 hr by competitive binding assay

Sequence of Cannabinoid receptor 2 (P34972 whole entry): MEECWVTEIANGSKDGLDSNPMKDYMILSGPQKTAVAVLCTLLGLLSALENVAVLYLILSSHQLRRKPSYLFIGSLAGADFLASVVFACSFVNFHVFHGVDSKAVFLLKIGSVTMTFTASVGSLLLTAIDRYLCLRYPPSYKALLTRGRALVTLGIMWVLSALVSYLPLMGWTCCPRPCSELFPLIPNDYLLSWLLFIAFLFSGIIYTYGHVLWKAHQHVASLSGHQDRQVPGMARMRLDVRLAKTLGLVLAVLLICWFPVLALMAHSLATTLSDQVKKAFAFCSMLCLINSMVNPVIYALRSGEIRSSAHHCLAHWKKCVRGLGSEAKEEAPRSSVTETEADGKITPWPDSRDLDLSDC

SMILES	Ki
Cc1ccc(Cn2cc(/C=C/[C@@H]3C(C)(C)[C@@H]4CC[C@@]3(C)C4)cc2-c2ccc(Cl)c(C)c2)cc1	1220 nM
Cc1cc(-c2cc(C(=O)N[C@@H]3C(C)(C)[C@@H]4CC[C@@]3(C)C4)nn2-c2ccccc2)ccc1Cl	94.2 nM
Cc1ccc(Cn2cc(C(=O)N[C@@H]3C(C)(C)[C@@H]4CC[C@@]3(C)C4)cc2-c2ccc(Cl)c(C)c2)cc1 (relative stereo)	15.3 nM
Cc1ccc(Cn2nc(/C=C/[C@@H]3C(C)(C)[C@@H]4CC[C@@]3(C)C4)cc2-c2ccc(Cl)c(C)c2)cc1 (relative stereo)	527 nM
Cc1ccc(Cn2nc(C(=O)N[C@@H]3C[C@@H]4CC[C@@]3(C)C4(C)C)cc2-c2ccc(Cl)c(C)c2)cc1	29.1 nM

Source: ChEMBL document CHEMBL2417473, “The importance of hydrogen bonding and aromatic stacking to the affinity and efficacy of cannabinoid receptor CB2 antagonist, 5-(4-chloro-3-methylphenyl)-1-[(4-methylphenyl)methyl]-N-[(1S,2S,4R)-1,3,3-trimethylbicyclo[2.2.1]hept-2-yl]-1H-pyrazole-3-carboxamide (SR144528)” (J Med Chem, 2013)
